What was measured:
Type in all cases: cell-based
CD8-positive T cells = test: Viability of expansion-cultured CD8-positive T cells after preservation, trypan blue staining method; conditions: CD8-positive T cells preserved at 5° C. for 24 hours; n=3
Procedure: Cryopreserved CD8-positive T cells were thawed, then washed with a lymphocyte culture medium (LGM3, manufactured by Lonza), and incubated in the medium for about 1 hour (at 37° C. in 5% CO2). […] The medium containing the CD8-positive T cells was separated and centrifuged (at 300×g and room temperature for 10 minutes). […] The supernatant was removed, and the cells were suspended in TLY CULTURE kit 25 (manufactured by GC LYMPHOTEC Inc.) and the CD8-positive T cells were expansion-cultured under conditions of 37° C. and 5% CO2 for 7 days.
CD8-positive T cells (with a cell concentration of about 1.1×10^6 cells/5 mL) expansion-cultured for 7 days were washed with Lactec injection containing 88 mM trehalose, dispensed in Stemfull tube (manufactured by Sumitomo Bakelite Co., Ltd.), and then centrifuged (at 300×g and room temperature for 10 minutes). […] The supernatant was removed, and the precipitate (CD8-positive T cells) was suspended in 3 kinds of test isotonic liquids (Lactec injection containing 88 mM acarbose, Lactec injection containing 88 mM trehalose, and Lactec injection) and then preserved at 5° C. for 24 hours. […] After preservation for 24 hours, the cell viability was measured according to the method described in procedure [2] above.

rat hepatocytes = test: Viability of rat hepatocytes after preservation in test isotonic liquid, trypan blue staining method; conditions: rat hepatocytes preserved at 4° C. for 24 hours; n=6; Pre 70.8±3.32
Procedure: A stock tube of rat hepatocytes was taken out of a liquid nitrogen tank and thawed in a constant temperature bath at 37° C. […] Immediately after thawing, it was allowed to stand on ice and transferred to a 50-mL centrifuge tube. […] 25 mL of hepatocyte wash medium (which will be hereinafter referred to as “wash medium”) (manufactured by GIBCO) cooled with ice was added dropwise. […] Centrifugation was performed at 50×g and 4° C. for 3 minutes. […] The supernatant (wash medium) was removed, 6 mL of wash medium was added thereto, and the precipitate (rat hepatocytes) was suspended by pipetting 2 to 3 times. […] The number of cells was measured and adjusted with a wash medium to 5×10^3 cells/mL, to prepare a wash medium containing rat hepatocytes.
0.5 mL of the wash medium containing rat hepatocytes prepared was dispensed into each tube and centrifuged (at 50×g and 4° C. for 3 minutes). […] The supernatant (wash medium) was removed, and the precipitate (rat hepatocytes) was suspended in 0.5 mL of each test isotonic liquid and preserved at 4° C. for 24 hours.

[1] = test system: bone marrow-derived human mesenchymal stem cells (hMSCs); test: Viability of hMSCs after preservation in test isotonic liquid, trypan blue staining method; conditions: for Cell viability (%) (Mean ± Standard deviation [SD]): n=3; for effect of suppressing the decrease in cell viability (screening of 93 saccharides): saccharide 87.5 mM in Lactec injection, compared with 88 mM trehalose or lactated Ringer's solution
Procedure: [1] 4×10^5 hMSCs were added to a 75-cm^2 flask and cultured at 37° C. in a 5% CO2 incubator in the presence of a medium. The state of the cells was observed under a microscope, and the cells were cultured until about 80% confluent. The medium was removed, and the hMSCs were rinsed with 8-mL PBS(−). The PBS(−) was removed, and 3.75-mL trypsin-EDTA (manufactured by Lonza) was added thereto, and the mixture was left standing at room temperature for 5 minutes. The hMSCs were observed under a microscope and slowly shaken until about 90% of them were exfoliated. 3.75 mL of medium was added thereto, to stop the trypsin reaction, and the hMSCs were collected by pipetting and transferred to a 50-mL centrifuge tube. […] Centrifugation was performed at 600×g and 22° C. for 5 minutes. The supernatant (medium) was removed, 1.5 mL of PBS(−) was added thereto, and the precipitate (hMSCs) was suspended. The number of cells was measured and adjusted with PBS(−) to 5×10^3 cells/mL, to prepare PBS containing hMSCs. [Method for Preserving hMSCs in Each Test Isotonic Liquid]
[1] 0.5 mL of the PBS containing hMSCs prepared was dispensed into each tube and centrifuged (at 600×g for 5 minutes). […] [Analysis of Viability of hMSCs by Trypan Blue Staining Method]
[1] […] Thereafter, 20 μL of a trypan blue staining solution (manufactured by Gibco) was mixed thereto. As a comparative control, 20 μL (equivalent to 1×10^4 cells) was collected from each PBS containing hMSCs before suspension in each test isotonic liquid (before preservation at 4° C.) and transferred to a tube. Thereafter, 20 μL of a trypan blue staining solution was mixed thereto. The total number of cells and the number of trypan blue-positive cells (dead cells) were measured under a microscope using OneCell Counter (manufactured by Bio Medical Science), to calculate the percentage of trypan blue-negative cells to the total number of cells, that is, the cell viability.

[2] = test system: bone marrow-derived human mesenchymal stem cells (hMSCs); test: Cell aggregation level of hMSCs after preservation, phase contrast microscope; conditions: hMSCs preserved at 25° C. for 48 hours; 88 mM acarbose in Lactec injection
Procedure: The hMSCs were preserved in each test isotonic liquid at 25° C. for 48 hours according to the method described in Example 1. Each test isotonic liquid containing the hMSCs after preservation was partially collected, and the presence or absence of cell aggregates in which three or more cells gather together was observed under a phase contrast microscope.

[3] = hMSCs preserved at 4° C. for 2 days, Pre 94.7±2.1
[4] = hMSCs preserved at 4° C. for 3 days, α-glucosidase inhibitors 175 mM, Pre 98.5±0.6
[5] = hMSCs preserved at 4° C. for 3 days
[6] = hMSCs preserved at 5° C. for 4 days, Pre 93.7±2.0%

Compound	Cell viability (%) (Mean ± Standard deviation [SD]) [1, 3]	effect of suppressing the decrease in cell viability (screening of 93 saccharides) [1, 5]	further results
C[C@H]1O[C@H](O[C@H]2[C@H](O)[C@@H](O)[C@@H](O[C@H]3[C@H](O)[C@@H](O)C(O)O[C@@H]3CO)O[C@@H]2CO)[C@H](O)[C@@H](O)[C@@H]1N[C@H]1C=C(CO)[C@@H](O)[C@H](O)[C@H]1O (stereo partly shown) [acarbose]	cell viability increased	higher effect of suppressing the decrease in cell viability than trehalose	Cell viability (%) (Mean ± Standard deviation [SD]) 24 hours (CD8-positive T cells): cell viability significantly increased; Cell viability (%) (Mean ± Standard deviation [SD]) (rat hepatocytes): cell viability significantly increased; Cell viability (%) (Mean ± Standard deviation [SD]) [1, 4]: cell viability increased; presence or absence of cell aggregates (three or more cells) [2]: almost no cell aggregates were observed
OCC(CO)N[C@H]1C[C@](O)(CO)[C@@H](O)[C@H](O)[C@H]1O [voglibose]			Cell viability (%) (Mean ± Standard deviation [SD]) [1, 4]: cell viability was almost unchanged
N[C@@H]1C(O)O[C@H](CO)[C@@H](O)[C@@H]1O (stereo partly drawn) [D-mannosamine]		cell viability decreased	
OC[C@H]1O[C@H](O[C@H]2O[C@H](CO)[C@@H](O)[C@H](O)[C@H]2O)[C@H](O)[C@@H](O)[C@@H]1O [trehalose]			Cell viability (%) (Mean ± Standard deviation [SD]) 24 hours (CD8-positive T cells): cell viability increased; Cell viability (%) (Mean ± Standard deviation [SD]) [1, 6]: cell viability increased
O=C(O)[C@H](O)[C@@H](O)[C@H](O[C@@H]1O[C@H](CO)[C@H](O)[C@H](O)[C@H]1O)[C@H](O)CO [D-lactobionic acid]		cell viability decreased	
CC1(C)O[C@H](CO)[C@@H](CO)O1 [(−)-2,3-O-iso propylidene-D-threitol]		cell viability decreased	
OCCN1C[C@H](O)[C@@H](O)[C@H](O)[C@H]1CO [miglitol]			Cell viability (%) (Mean ± Standard deviation [SD]) [1, 4]: cell viability was almost unchanged
OC[C@H]1O[C@H](OC[C@H]2O[C@H](OC[C@H]3O[C@H](O[C@]4(CO)O[C@H](CO)[C@@H](O)[C@@H]4O)[C@H](O)[C@@H](O)[C@@H]3O)[C@H](O)[C@@H](O)[C@H]2O)[C@H](O)[C@@H](O)[C@H]1O [stachyose]	cell viability increased	higher effect of suppressing the decrease in cell viability than trehalose	Cell viability (%) (Mean ± Standard deviation [SD]) [1, 6]: cell viability significantly increased at any concentration
OC[C@H]1O[C@H](O[C@H]2[C@H](O)[C@@H](O)[C@@H](O[C@H]3[C@H](O)[C@@H](O)[C@@H](O[C@H]4[C@H](O)[C@@H](O)C(O)O[C@@H]4CO)O[C@@H]3CO)O[C@@H]2CO)[C@H](O)[C@@H](O)[C@@H]1O (stereo partly shown) [maltotetraose]	such an increase in cell viability was not observed		
O=C[C@H](O)[C@@H](O)[C@@H](O)[C@H](O)C(=O)O [D-galacturonic acid]		cell viability decreased	
OC[C@H]1O[C@@](CO)(OC[C@@]2(OC[C@@]3(O[C@H]4O[C@H](CO)[C@@H](O)[C@H](O)[C@H]4O)O[C@H](CO)[C@@H](O)[C@@H]3O)O[C@H](CO)[C@@H](O)[C@@H]2O)[C@@H](O)[C@@H]1O [nystose]	such an increase in cell viability was not observed		
